Data: patent US9414998B2, “Preventing or ameliorating agent for pigmentation” (Pola Chemical Industries Inc., priority 2009, dated 2016)

Test system: pigmented guinea pigs
Assay: Ultraviolet ray-induced pigmentation inhibition test using pigmented guinea pigs
Format: in vivo, guinea pig
Details: 3% (w/v) in ethanol, 30 μL once a day for 5 weeks; L* on 36th day minus L* before ultraviolet radiation; average ± standard deviation of 8 samples; solvent control −11.83 ± 0.78
Text: Skins of backs of eight pigmented guinea pigs were subjected to the hair removal and the hair shaving with electric hair clippers and shaver, and these sites were covered with black cloths each having four radiation windows of 2×2 cm in total disposed at two upper left and right positions and two lower left and right positions respectively. After that, the ultraviolet ray was radiated at 300 mJ/cm^2 by using FL20S•E30 lamp as the light source. This operation was repeatedly performed on 1st, 3rd, 5th, and 8th days of the test to induce the pigmentation at the four test sites. The compound to be evaluated (Compound 1) was dissolved and prepared in ethanol so that the concentration was 3% (w/v). Ethanol was applied as the solvent control group. The application of each of the compounds to be evaluated was started from the time of completion of the ultraviolet radiation on the 1st day of the test. Each of the compounds to be evaluated was applied in an amount of 30 μL once a day to the predetermined test sites, and this procedure was continuously carried out for 5 weeks (until 35th day of the test). […]

SMILES | ΔL* value
Cc1ccc(C(=O)N[C@@H](CO)C(=O)O)cc1 [Compound 1, N-(p-methylbenzoyl)-L-serine] | −9.98 ± 0.71

Test system: normal human melanocyte
Assay: Ultraviolet B (UVB)-induced activation inhibition test using normal human melanocyte (MTT, supernatant of UVB-irradiated keratinocytes)
Format: cell-based
Details: light or radiation study, UVB 5 mJ/cm^2, compound 100 mM in DMSO diluted 1,000 times, formazan production ratio, DMSO negative control irradiated with UVB = 100, average of three measurements, read-out: Melanocyte proliferation ratio Average (%)
Protocol: The suppressing effect of each of the compounds, which was exerted on the activation of melanocyte by the melanocyte activating factor produced and released from normal human keratinocyte by the ultraviolet B (UVB), was investigated by using the index of the cell proliferation function of normal human melanocyte.
Normal human keratinocyte cells (Kurabo Industries, Ltd.) were seeded by using Humedia-KG2 medium (Kurabo Industries, Ltd.) at a concentration of 10×10^4 cells/well in 24-well plate, followed by being cultured for 24 hours.
The compound to be evaluated was dissolved at a concentration of 100 mM in DMSO, which was diluted 1,000 times with Humedia-KG2 medium and used as a sample solution. As for the positive control group, tranexamic acid was dissolved at a concentration of 100 mM in DMSO, which was diluted 1,000 times with Humedia-KG2 medium and used as a positive control sample solution. As for the negative control group, DMSO was diluted 1,000 times with Humedia-KG2 medium, which was used as a negative control sample solution. A concentration, at which the cell proliferation of normal human melanocyte was not affected, was set for each of the compounds.
The medium of normal human keratinocyte was exchanged with Humedia-KG2 medium (sample solution) containing the compound at a predetermined concentration, and the cells were cultured for further 24 hours. After that, the medium was exchanged with PBS (phosphate buffered saline), and cells were irradiated with the ultraviolet B (UVB) at 5 mJ/cm^2 by using an ultraviolet lamp (FL20S•E-30/DMR, Toshiba Medical Supply Co., Ltd.) as a light source. After the ultraviolet radiation, PBS was exchanged with the sample solution. Cells were cultured for further 24 hours, and then the culture supernatant was collected.
Normal human melanocyte cells were seeded to 96-well plate by using a medium of Medium 254 (Kurabo Industries, Ltd.) so that the concentration was 3×10^4 cells/well, and the cultivation was performed for 24 hours. After that, the medium was exchanged with the culture supernatant collected from normal human keratinocyte, and the cells were cultured for further 24 hours. After the cultivation for 24 hours, the medium was exchanged with Humedia-KG2 medium containing 0.5 mg/mL of 3-(4,5-dimethyl-2-thiazoyl)-2,5-diphenyl-2H-tetrazolium bromide (MTT), and the cultivation was performed for 3 hours.
The formazan amount was determined by measuring the absorbances at 570 nm and 690 nm of cell lysate prepared with 2-propanol by means of a microplate reader (Benchmark Plus, Bio-Rad) and subtracting the absorbance at 690 nm from the absorbance at 570 nm.
The suppressing effect of each of the compounds on the melanocyte proliferation was represented by the percentage (%) as the formazan production ratio while the absorbance of the DMSO added group (negative control group) irradiated with the ultraviolet B (UVB) was assumed as 100.
It can be judged that the lower the production ratio of formazan is, the lower the melanocyte proliferation ratio is. Therefore, when the production ratio of formazan is lower, it is possible to judge that the suppressing activity of the compound to be evaluated is high with respect to the activation of melanocyte by the melanocyte activating factor produced and released by normal human keratinocyte.

SMILES | activity at 100 µM [%]
Cc1ccc(C(=O)NC(CO)C(=O)O)cc1 (racemic) [Compound 3, N-(p-methylbenzoyl)serine] | 61.6
COCC(NC(=O)c1ccc(C)cc1)C(=O)O (racemic) [Compound 9, N-(p-methylbenzoyl)-O-methylserine] | 62.3
COCC(NC(=O)c1ccc2ccccc2c1)C(=O)O (racemic) [Compound 13, N-(2-naphthoyl)-O-methylserine] | 80.3
COCC(NC(=O)c1ccccc1)C(=O)O (racemic) [Compound 16, N-benzoyl-O-methylserine] | 65.5
Cc1ccc(C(=O)N[C@@H](CO)C(=O)O)cc1 [Compound 1, N-(p-methylbenzoyl)-L-serine] | 57
O=C(N[C@@H](CO)C(=O)O)c1ccccc1 [Compound 2, N-benzoyl-serine] | 60.9
O=C(N[C@@H](CO)C(=O)O)c1ccc(F)cc1 [Compound 4, N-(p-fluorobenzoyl)serine] | 55.3
COc1ccc(C(=O)N[C@@H](CO)C(=O)O)cc1 [Compound 5, N-(p-methoxybenzoyl)serine] | 63.4
CCc1ccc(C(=O)N[C@@H](CO)C(=O)O)cc1 [Compound 7, N-(p-ethylbenzoyl)serine] | 65.1
O=C(N[C@@H](CO)C(=O)O)c1ccc(C(F)(F)F)cc1 [Compound 8, N-(p-trifluoromethylbenzoyl)serine] | 53.9
O=C(N[C@@H](CO)C(=O)O)c1ccc2ccccc2c1 [Compound 10, N-(2-naphthoyl)serine] | 82.4
CC(=O)OC[C@H](NC(=O)c1ccc(C)cc1)C(=O)O [Compound 11, N-(p-methylbenzoyl)-O-acetylserine] | 71.8
COC(=O)[C@H](CO)NC(=O)c1ccc2ccccc2c1 [Compound 12, N-(2-naphthoyl)serine methyl ester] | 83.1
O=C(N[C@@H](CO)C(=O)O)c1ccc(-c2ccccc2)cc1 [Compound 14, N-(4-phenylbenzoyl)serine] | 75
Cc1ccc(C(=O)NC(CO)C(=O)O)cc1 (stereo not drawn) [Compound 15, N-(p-methylbenzoyl)serine] | 60.2
CCOC(=O)[C@H](CO)NC(=O)c1ccc(C)cc1 [Compound 17, N-(p-methylbenzoyl)serine ethyl ester] | 73.6
NC[C@H]1CC[C@H](C(=O)O)CC1 [Tranexamic acid, tranexamic acid, reference compound] | 82
